Test results published in ChEMBL document CHEMBL3885861, “Open TG-GATES”.

Species: Rattus norvegicus
Assay: Open TG-GATES - Regimen: Single
Type: toxicity, organism-based, Sprague-Dawley
Set-up: regimen Single, gender Male, age 6 weeks
Conditions: in vivo, iv, 300 mg/kg, route intravenous injection, dose level Low; for APTT / Bas / Eos / Fbg / Hb / Ht / Lym / MCH / MCHC / MCV / Mono / PT / Plat / RBC / Ret / WBC: tissue Blood; for KIDNEY_L / KIDNEY_R / KIDNEY_TOTAL: tissue Kidney; for LIVER: tissue Liver; for ALP / ALT / AST / BUN / CRE / Ca / Cl / DBIL / GLC / IP / K / LDH / Na / PL / RALB / TBIL / TC / TG / TP / gamma-GTP: tissue Plasma

For CC(=O)OCC1=C(C(=O)O)N2C(=O)[C@@H](NC(=O)Cc3cccs3)[C@H]2SC1 [CEPHALOTHIN], the TERMINAL_BW (3 h) was 215.7 g, the APTT (3 h) was 21.9 s and the Bas (3 h) was 0%. The Eos (3 h) was 0.6%, the Fbg (3 h) was 294.6 mg/dL and the Hb (3 h) was 13 g/dL. For the same compound, the Ht (3 h) was 38.4%, the Lym (3 h) was 75.4% and the MCH (3 h) was 21.3 pg. The MCHC (3 h) was 33.8%, the MCV (3 h) was 62.9 fL and the Mono (3 h) was 2.6%. The PT (3 h) was 16.4 s, the Plat (3 h) was 128.8 x10_4/uL and the RBC (3 h) was 611.6 x10_4/ul. It also gave a Ret (3 h) of 6.6%, a WBC (3 h) of 98.3 x10_2/uL and a KIDNEY_L (3 h) of 0.9 g. For the same compound, the KIDNEY_R (3 h) was 1 g, the KIDNEY_TOTAL (3 h) was 1.9 g and the LIVER (3 h) was 9.8 g. For the same compound, the ALP (3 h) was 1407.8 IU/L, the ALT (3 h) was 49.8 IU/L and the AST (3 h) was 87.8 IU/L. It also gave a BUN (3 h) of 12.4 mg/dL, a CRE (3 h) of 0.2 mg/dL and a Ca (3 h) of 10.5 mg/dL. For the same compound, the Cl (3 h) was 105.8 meq/L, the DBIL (3 h) was 0 mg/dL and the GLC (3 h) was 179 mg/dL. It also gave an IP (3 h) of 7.8 mg/dL, a K (3 h) of 4.1 meq/L and an LDH (3 h) of 204.4 IU/L. For the same compound, the Na (3 h) was 142.4 meq/L, the PL (3 h) was 135.2 mg/dL and the RALB (3 h) was 2.8 g/dL. It also gave a TBIL (3 h) of 0.016 mg/dL, a TC (3 h) of 69.2 mg/dL and a TG (3 h) of 92 mg/dL. It also gave a TP (3 h) of 5.2 g/dL, a gamma-GTP (3 h) of 1.4 IU/L and a TERMINAL_BW (6 h) of 208.2 g. The APTT (6 h) was 22.7 s, the Bas (6 h) was 0% and the Eos (6 h) was 0.8%. The Fbg (6 h) was 278.6 mg/dL, the Hb (6 h) was 13.4 g/dL and the Ht (6 h) was 38.9%. It also gave a Lym (6 h) of 78%, an MCH (6 h) of 21.3 pg and an MCHC (6 h) of 34.4%. For the same compound, the MCV (6 h) was 62 fL, the Mono (6 h) was 2.6% and the PT (6 h) was 16 s. For the same compound, the Plat (6 h) was 118.3 x10_4/uL, the RBC (6 h) was 627.2 x10_4/ul and the Ret (6 h) was 5.9%. It also gave a WBC (6 h) of 75.8 x10_2/uL, a KIDNEY_L (6 h) of 0.9 g and a KIDNEY_R (6 h) of 0.9 g. It also gave a KIDNEY_TOTAL (6 h) of 1.9 g, an LIVER (6 h) of 8.9 g and an ALP (6 h) of 1320.4 IU/L. It also gave an ALT (6 h) of 36.8 IU/L, an AST (6 h) of 78.4 IU/L and a BUN (6 h) of 9.6 mg/dL. The CRE (6 h) was 0.2 mg/dL, the Ca (6 h) was 10.3 mg/dL and the Cl (6 h) was 105.6 meq/L. The DBIL (6 h) was 0 mg/dL, the GLC (6 h) was 171.6 mg/dL and the IP (6 h) was 9 mg/dL. It also gave a K (6 h) of 4.1 meq/L, an LDH (6 h) of 162.4 IU/L and a Na (6 h) of 141.6 meq/L. The PL (6 h) was 125.4 mg/dL, the RALB (6 h) was 2.9 g/dL and the TBIL (6 h) was 0.022 mg/dL. The TC (6 h) was 66.4 mg/dL, the TG (6 h) was 75.2 mg/dL and the TP (6 h) was 5.3 g/dL. It also gave a gamma-GTP (6 h) of 1 IU/L, a TERMINAL_BW (9 h) of 211.4 g and an APTT (9 h) of 24.2 s. For the same compound, the Bas (9 h) was 0%, the Eos (9 h) was 1% and the Fbg (9 h) was 284 mg/dL. The Hb (9 h) was 13.2 g/dL, the Ht (9 h) was 38.6% and the Lym (9 h) was 81.2%. The MCH (9 h) was 21.3 pg, the MCHC (9 h) was 34.1% and the MCV (9 h) was 62.3 fL. It also gave a Mono (9 h) of 2%, a PT (9 h) of 16.1 s and a Plat (9 h) of 135 x10_4/uL. The RBC (9 h) was 619.6 x10_4/ul, the Ret (9 h) was 6.4% and the WBC (9 h) was 77.3 x10_2/uL. The KIDNEY_L (9 h) was 1 g, the KIDNEY_R (9 h) was 1 g and the KIDNEY_TOTAL (9 h) was 1.9 g. It also gave an LIVER (9 h) of 8.6 g, an ALP (9 h) of 1157.8 IU/L and an ALT (9 h) of 34.2 IU/L. It also gave an AST (9 h) of 69 IU/L, a BUN (9 h) of 10 mg/dL and a CRE (9 h) of 0.1 mg/dL. The Ca (9 h) was 10.4 mg/dL, the Cl (9 h) was 106.2 meq/L and the DBIL (9 h) was 0 mg/dL. The GLC (9 h) was 180.8 mg/dL, the IP (9 h) was 9.6 mg/dL and the K (9 h) was 4.5 meq/L. It also gave an LDH (9 h) of 128.6 IU/L, a Na (9 h) of 141 meq/L and a PL (9 h) of 115.8 mg/dL. The RALB (9 h) was 2.8 g/dL, the TBIL (9 h) was 0.02 mg/dL and the TC (9 h) was 60.6 mg/dL. It also gave a TG (9 h) of 71.2 mg/dL, a TP (9 h) of 5.1 g/dL and a gamma-GTP (9 h) of 1.4 IU/L. It also gave a TERMINAL_BW (24 h) of 226.1 g, an APTT (24 h) of 22 s and a Bas (24 h) of 0%. For the same compound, the Eos (24 h) was 0.8%, the Fbg (24 h) was 303.8 mg/dL and the Hb (24 h) was 13.2 g/dL. The Ht (24 h) was 38.9%, the Lym (24 h) was 81% and the MCH (24 h) was 20.6 pg. It also gave an MCHC (24 h) of 34%, an MCV (24 h) of 60.4 fL and a Mono (24 h) of 2.2%. For the same compound, the PT (24 h) was 16.7 s, the Plat (24 h) was 120 x10_4/uL and the RBC (24 h) was 645.2 x10_4/ul. For the same compound, the Ret (24 h) was 6%, the WBC (24 h) was 89.2 x10_2/uL and the KIDNEY_L (24 h) was 1 g. The KIDNEY_R (24 h) was 1 g, the KIDNEY_TOTAL (24 h) was 2 g and the LIVER (24 h) was 10.2 g. It also gave an ALP (24 h) of 1605.2 IU/L, an ALT (24 h) of 53 IU/L and an AST (24 h) of 77.6 IU/L. The BUN (24 h) was 17 mg/dL, the CRE (24 h) was 0.2 mg/dL and the Ca (24 h) was 10.6 mg/dL. For the same compound, the Cl (24 h) was 105.8 meq/L, the DBIL (24 h) was 0 mg/dL and the GLC (24 h) was 184.4 mg/dL. For the same compound, the IP (24 h) was 7.2 mg/dL, the K (24 h) was 4.3 meq/L and the LDH (24 h) was 171.6 IU/L. It also gave a Na (24 h) of 142.4 meq/L, a PL (24 h) of 135.6 mg/dL and an RALB (24 h) of 2.9 g/dL. It also gave a TBIL (24 h) of 0.016 mg/dL, a TC (24 h) of 70.6 mg/dL and a TG (24 h) of 90 mg/dL. For the same compound, the TP (24 h) was 5.4 g/dL and the gamma-GTP (24 h) was 2 IU/L.
